Measurements published in article PMC3621123 (Journal of medicinal chemistry, 2013).
Where “and” joins values, the source holds several entries; their conditions need not be identical. Equal entries are not always repeated. Where two headings read alike, the source gives them in different places.

Experiments:
BasE [1] = target: T1, BasE (Acinetobacter baumannii, UniProt A0A0D5YGP3); assay: biochemical; type: binding; conditions: for fold loss of affinity/potency toward BasE relative to 15: ratio of KD to lead compound 15; for Kd: KD (nM) BasE, FP displacement, 20 nM Fl-Sal-AMS 14, 200 nM BasE, pH 7.5, 25 °C; for fold increase in affinity toward BasE relative to 15: ratio of KD of lead compound 15 to compound
MbtA = MbtA (Mycobacterium tuberculosis, UniProt P71716); assay: Fluorescence polarization displacement of Fl-Sal-AMS 14 from MbtA; type: binding; conditions: for fold loss of affinity toward MbtA relative to 15: ratio of KD to lead compound 15
MbtA, sequence (P71716 whole entry): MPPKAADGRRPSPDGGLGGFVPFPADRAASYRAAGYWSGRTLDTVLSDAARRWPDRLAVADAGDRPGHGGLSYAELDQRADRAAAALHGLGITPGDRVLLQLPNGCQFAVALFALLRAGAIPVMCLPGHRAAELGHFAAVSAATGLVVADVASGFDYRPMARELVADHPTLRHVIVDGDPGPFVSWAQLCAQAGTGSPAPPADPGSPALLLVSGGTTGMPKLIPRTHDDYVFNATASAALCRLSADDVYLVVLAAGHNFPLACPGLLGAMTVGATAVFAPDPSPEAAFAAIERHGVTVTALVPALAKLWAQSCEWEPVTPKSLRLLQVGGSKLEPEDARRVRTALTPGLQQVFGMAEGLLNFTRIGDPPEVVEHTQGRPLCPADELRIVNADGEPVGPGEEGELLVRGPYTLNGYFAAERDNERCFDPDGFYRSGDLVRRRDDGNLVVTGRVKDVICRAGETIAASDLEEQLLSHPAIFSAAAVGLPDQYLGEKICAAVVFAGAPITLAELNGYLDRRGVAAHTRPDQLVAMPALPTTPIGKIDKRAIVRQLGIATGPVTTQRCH

A. baumannii = conditions: ref unpublished results, Brian Beck, Laura Celia, ATCC; cited from earlier work
K. pneumoniae = conditions: ref unpublished results, Brian Beck, Laura Celia, ATCC; cited from earlier work
E. coli = conditions: ref unpublished results, Brian Beck, Laura Celia, ATCC; cited from earlier work
P. aeruginosa = conditions: ref unpublished results, Brian Beck, Laura Celia, ATCC; cited from earlier work
BasE [2] = target: T1, BasE; conditions: read-out: KD1, equilibrium dissociation constant of probe 14 for BasE; cited from earlier work

Row | Compound | fold loss of affinity/potency toward BasE relative to 15 (BasE [1]) | other results
1 | O=C(O)c1cc(=O)[nH]c2c1cnn2Cc1ccncc1 [Compound 98, 6-Oxo-1-(pyridin-4-ylmethyl)-6,7-dihydro-1H-pyrazolo[3,4-b]pyridine-4-carboxylic acid] | > 2800 fold | 
2 | O=C(O)c1cc(-c2ccccc2O)nc2c1cnn2Cc1ccncc1 [Compound 40] | 7 fold | 
3 | O=C(O)c1cc(-c2cncc3ccccc23)nc2c1cnn2Cc1ccncc1 [Compound 86] | 215 fold | 
4 | OCc1cc(-c2ccccc2)nc2c1cnn2Cc1ccncc1 [Compound 19, 4-Hydroxymethyl-6-phenyl-1-(pyridin-4-ylmethyl)-1H-pyrazolo[3,4-b]pyridine] | 2.8 fold and 3 fold | 
5 | O=C(O)c1cc(-c2cccc(Cl)c2)nc2c1cnn2Cc1ccncc1 [Compound 45] |  | Kd (BasE [1]): < 10 nM; fold increase in affinity toward BasE relative to 15 (BasE [1]): more than 4 fold
6 | O=C(O)c1cc(-c2ccccc2)cc2nn(Cc3ccncc3)cc12 [Compound 99, 6-Phenyl-2-(pyridin-4-ylmethyl)-2H-indazole-4-carboxylic acid] | 1800 fold | fold loss of affinity toward MbtA relative to 15 (MbtA): 15.5 fold
7 | O=C(O)c1cc(C#Cc2ccccc2)nc2c1cnn2Cc1ccncc1 [Compound 94, 6-(Phenylethynyl)-1-(pyridin-4-ylmethyl)-1H-pyrazolo[3,4-b]pyridine-4-carboxylic acid] | ~ 10 fold | 
8 | O=C(O)c1cc(-c2ccccc2)nc2c1cnn2Cc1ccc(O)cc1 [Compound 32, 1-(4-Hydroxybenzyl)-6-phenyl-1H-pyrazolo[3,4-b]pyridine-4-carboxylic acid] | 15 fold | 
9 | C=Cc1cc(C(=O)O)c2cnn(Cc3ccncc3)c2n1 [Compound 91] | ~ 55 fold | 
10 | O=C(O)c1cc(/C=C/c2ccccc2)nc2c1cnn2Cc1ccncc1 [Compound 92] | ~ 10 fold | 
11 | Nc1cc(-c2ccccc2)nc2c1cnn2Cc1ccncc1 [Compound 21, 6-Phenyl-1-(pyridin-4-ylmethyl)-1H-pyrazolo[3,4-b]pyridin-4-amine] | approximately 6 fold | 
12 | NC(=O)c1cc(-c2ccccc2)nc2c1cnn2Cc1ccncc1 [Compound 22, 6-Phenyl-1-(pyridin-4-ylmethyl)-1H-pyrazolo[3,4-b]pyridine-4-carboxamide] | 1.8 fold and 2 fold | 
13 | O=C(O)c1cc(-c2ccc3[nH]ccc3c2)nc2c1cnn2Cc1ccncc1 [Compound 87] | 1.7 fold | 
14 | O=C(O)c1cc(-c2ccccc2)cc2c1cnn2Cc1ccncc1 [Compound 16, 6-Phenyl-1-(pyridin-4-ylmethyl)-1H-indazole-4-carboxylic acid] | 2 fold | 
15 | Cc1ccc(-c2cc(C(=O)O)c3cnn(Cc4ccncc4)c3n2)cc1 [Compound 39] |  | fold increase in affinity toward MbtA relative to 15 (MbtA; ratio of KD of lead compound 15 to compound): 2.6 fold
16 | Cc1csc(-c2cc(C(=O)O)c3cnn(Cc4ccncc4)c3n2)c1 [Compound 78] | 2.4 fold | 
17 | O=C(O)c1cc(-c2ccc(OCc3ccccc3)cc2)nc2c1cnn2Cc1ccncc1 [Compound 67] |  | Kd (BasE [1]): 2 nM and < 10 nM; fold increase in affinity toward BasE relative to 15 (BasE [1]): 17 fold

Row | Compound | fold loss of affinity/potency toward BasE relative to 15 (BasE [1]) | other results
18 | Cc1ccsc1-c1cc(C(=O)O)c2cnn(Cc3ccncc3)c2n1 [Compound 77] | 9 fold | 
19 | O=C(O)c1cc(-c2cccs2)nc2c1cnn2Cc1ccncc1 [Compound 76] | ~ 10 fold | 
20 | O=C(O)c1cc(-c2ccccc2)cc2c1ccn2Cc1ccncc1 [Compound 17, 6-Phenyl-1-(pyridin-4-ylmethyl)-1H-indole-4-carboxylic acid] | 1400 fold | 
21 | O=C(O)c1cc(-c2ccco2)nc2c1cnn2Cc1ccncc1 [Compound 75] | ~ 10 fold | 
22 | COc1ccc(COc2ccc(-c3cc(C(=O)O)c4cnn(Cc5ccncc5)c4n3)cc2)cc1 [Compound 68] |  | fold less potent than 67 toward BasE (BasE [1]; relative to p-benzyloxy 67): 21 fold
23 | O=C(O)c1cc(-c2ccc(O)cc2)nc2c1cnn2Cc1ccncc1 [Compound 42, 6-(4-Hydroxyphenyl)-1-(pyridin-4-ylmethyl)-1H-pyrazolo[3,4-b]pyridine-4-carboxylic acid] |  | Kd (BasE [1]): < 10 nM; fold increase in affinity toward BasE relative to 15 (BasE [1]): more than 4 fold
24 | O=C(O)c1ccc(-c2cc(C(=O)O)c3cnn(Cc4ccncc4)c3n2)cc1 [Compound 58] | over 20 fold | fold loss of affinity toward MbtA relative to 15 (MbtA): 2 fold
25 | Cc1ccc(-c2cc(C(=O)O)c3cnn(Cc4ccncc4)c3n2)s1 [Compound 79] |  | Kd (BasE [1]): < 10 nM; fold increase in affinity toward BasE relative to 15 (BasE [1]): 5 fold
26 | Nc1ccc(-c2cc(C(=O)O)c3cnn(Cc4ccncc4)c3n2)cc1 [Compound 52] | 2.2 fold | 
27 | CCOC(=O)c1cc(-c2ccccc2)nc2c1cnn2Cc1ccncc1 [Compound 18, Ethyl 6-phenyl-1-(pyridin-4-ylmethyl)-1H-pyrazolo[3,4-b]pyridine-4-carboxylate] | 60 fold | 
28 | O=C(O)c1cc(-c2ccc(-c3ccccc3)cc2)nc2c1cnn2Cc1ccncc1 [Compound 72] | 3.5 fold | 
29 | O=C(c1ccccc1)c1ccc(-c2cc(C(=O)O)c3cnn(Cc4ccncc4)c3n2)cc1 [Compound 70] |  | Kd (BasE [1]): 19 nM; fold increase in affinity toward BasE relative to 15 (BasE [1]): 2 fold
30 | COc1ccc(-c2cc(C(=O)O)c3cnn(Cc4ccncc4)c3n2)cc1 [Compound 62] | 2.2 fold | 
31 | C#Cc1cc(C(=O)O)c2cnn(Cc3ccncc3)c2n1 [Compound 93, 6-Ethynyl-1-(pyridin-4-ylmethyl)-1H-pyrazolo[3,4-b]pyridine-4-carboxylic acid] | ~ 55 fold | 
32 | CC(=O)Nc1ccc(-c2cc(C(=O)O)c3cnn(Cc4ccncc4)c3n2)cc1 [Compound 54] | over 20 fold | 
33 | Nc1ncnc2c1ncn2[C@@H]1O[C@H](COS(=O)(=O)NC(=O)c2cccc(O)c2O)[C@@H](O)[C@H]1O [2,3-DHB-AMS, 5′-O-[N-(2,3-dihydroxybenzoyl)sulfamoyl]adenosine] |  | activity against A. baumannii (A. baumannii): no activity; activity against K. pneumoniae (K. pneumoniae): no activity; activity against E. coli (E. coli): no activity; activity against P. aeruginosa (P. aeruginosa): no activity
34 | 22-O-{2-[2-(2-{[(fluorescein-5-yl)carbonyl]amino}ethoxy)ethoxy]ethoxy}-52-O-[N-(salicyl)sulfamoyl]adenosine [Compound 14] |  | Kd (BasE [2]): 84.3 nM
